For test [1], the system named is Enterococcus faecalis VanA. As to the kind of experiment: Vancomycin MIC of the test strain; checkerboard with D-alanine. Type of test: cell-based. The protocol:
In addition, in the bacterial strain used in the assays below, vancomycin induces the resistance mechanism. […] However, it is likely that the VPS-8 protocol (or one with a similar glycopeptide concentration)will be useful in conjunction with bacterial strains in which the glycopeptide resistance is not induced by a glycopeptide, such as strains in which the resistance is constitutively expressed.
9. […] 25 ul of the 800 mM D-alanine, 15 ul of 134 ug/ml vancomycin, 10 ul of 10% DMSO, 90% 50 mM HEPES, pH 7.3, 50 ul of BHI broth (negative control) or the inoculum (positive control).

For test [2], the system named is E. faecalis VanA strain. Briefly: Vancomycin potentiation screens VPS-20 and VPS-D-ala. Type of test: cell-based, Enterococcus faecalis. The note with it: 10 ug/ml test compound; for intrinsic activity against the control cells: no vancomycin; for vancomycin potentiation screen result: VPS-20 and/or VPS-D-ala. The procedure:
(§1) In the VPS-20 protocol, vancomycin is used at 20 ug/ml, test compounds are used at 10 ug/ml (this is not critical, a range could be used as well). The growth medium is Brain Heart Infusion broth however, any of a variety of media which will support growth of the specific bacterial strain can be used. The VPS-D-Ala screen uses 8 ug/ml of vancomycin and 50 mM D-alanine. This amino acid is added to feed the bacteria excess alanine, which allows the bacteria to incorporate the alanine in some cases instead of incorporating the (resistance causing) D-lactate in the pentapeptide termini of the cell wall precursor. The presence of this D-alanine supplement thus makes the assay less stringent.
(§2) Inoculate E. faecalis VanA strain in BHI broth (pick a few colonies into 3 ml BHI with 2.56 ug/ml vancomycin and grow O/N at 35° C. in a shaker rotating at 225 rpm.
(§3) Dilute the O/N culture 1:50 in BHI with 2.56 ug/ml vancomycin (0.5 ml±24.5 ml BHI) in a 125-ml flask, put back in the 35° C. shaker until the cells grow to early log phase (OD600 about 0.2, takes approximately 2 hrs). Make a 1:800 dilution of the log phase culture with BHI broth. 50 ul of these diluted cells will be used as the inoculum in the assay as described below. Add the inoculum after the other reagents.
(§4) Meanwhile, test the inoculum concentration and purity: Make 3 serial 10-fold dilutions of the inoculum in 0.2 ml BHI broth. Plate 100 ul on TSA agar plates (trypticase soy agar), incubate at 35° C. O/N, count the colonies to estimate the CFU/ml in the inoculum (it should be 10^4 -10^5 CFU/ml).
(§5) Make vancomycin stock at 50 mg/ml in ddH2 O. Filter sterilize with 0.2 um filter, and keep in the freezer. On the day of the assay, dilute vancomycin to 50 ug/ml (for VPS-20) or 54 ug/ml (for VPS-D-ala) in BHI broth.
Prepare D-alanine (Sigma) at 800 mM in ddH2O. Filter sterilize with 0.2 um filter.
(§6) The test compounds are from 0.1 mg/ml plates in 10% DMSO, 90% 50 mM HEPES, pH 7.3. Thaw at room temperature.
1. Take 40 ul 50 ug/ml vancomycin in BHI to each well of the assay plate (Final volume will be 100 ul, making vancomycin concentration 20 ug/ml)
2. For each assay plate, prepare a toxicity control plate; instead of pipetting 40 ul of the vancomycin, use 40 ul of BHI broth in each well of the assay plate.
3. Dilute 800 mM D-alanine to 200 mM in BHI broth, take 25 ul of the 200 mM D-alanine to both the assay plate and the toxic control plate.
4. Take 15 ul of 54 ug/ml vancomycin in BHI to each well of the assay plate (Final volume will be 100 ul, making vancomycin concentration 8 ug/ml)
5. For each assay plate, prepare a toxicity control plate; instead of pipetting 15 ul of the vancomycin, use 15 ul of BHI broth in each well of the assay plate.
6. Take 10 ul/well of the test compounds to the assay plates and the toxicity control plates. Do this in perfect register in the microtiter plates (change tips), and work using sterile technique (Final concentration will be 10 ug/ml test compounds, 1% DMSO). This must be done with separate tips, in perfect register.
7. Add 10 ul of 10% DMSO, 90% 50 mM HEPES, pH 7.3 in columns 1 and 12 in each plates.
8. Inoculate all wells in columns 2 to 11 with 50 ul 1/800 diluted log phase culture (prepared as indicated above). Use 50 ul sterile BHI instead of inoculum for the negative growth controls in well A-D in columns 1 and well E-H in columns 12. Add 50 ul of inoculum to Wells E-H in columns 1 and wells A-D in columns 12 for the positive growth controls.
(§7) 11. […] Remove mylar lids and check the cell density (A600) in 21-24 hours using a microtiter plate reader. The plates will need to be agitated carefully to resuspend the cells before reading.

Test [3] has as its system Enterococcus faecalis VanA. As to the kind of experiment: Checkerboard assay / dose range study with vancomycin. Type of test: cell-based. The note with it: for vancomycin MIC reduction in checkerboard assay: compound 0-20 μg/ml, VanA; for synergy with vancomycin: dose range study, VanA phenotype. The text has this: (§8) FIG. 9a provides the results of checkerboard assays showing the MIC reduction for vancomycin in the presence of a range of concentrations of brazilin against two Enterococcus faecalis strains, one VanA and the other VanB. […] Similarly, FIG. 9b provides the results of checkerboard assays showing the MIC reduction for vancomycin in the presence of a range of concentrations of 6-ethyl-7-[1-oxo-3-(1-pyrrolidino)]propyl-1,2,3,4-tetrahydro-1,1,4,4-tetramethylnaphthalene (EOPPTTN).
(§9) Two of the three compounds (brazilin and 6-ethyl-7-[oxo-3-(1-pyrrolidino)]propyl-1,2,3,4-tetrahydro-1,1,4,4-tetramethylnaphthalene) have been examined for synergy with vancomycin. […] Two examples of reasons for alterations are for further optimization, and for modification for use with other bacterial strains or species.

Test [4] deals with Enterococcus faecalis VanB. The test is described as above. Type of test: cell-based. The note with it: for vancomycin MIC reduction in checkerboard assay: compound 0-20 μg/ml, VanB; for synergy with vancomycin: dose range study, VanB phenotype.
Description: as §8, §9

For test [5], the system named is E. faecalis VanA strain. As to the kind of experiment: Vancomycin potentiation screen VPS-20. The following applies: Enterococcus faecalis, 10 ug/ml test compound. Type of test: cell-based. The procedure:
as §1, §2, §3, §4, §5, §6
1. […]
as §7

Test [6] has as its system MRSA Col cells. As to the kind of experiment: Time-kill curve with methicillin. Type of test: cell-based, Staphylococcus aureus. The following applies: methicillin only; at 24 hours. The protocol:
FIG. 3a is a graph of the number of viable MRSA Col cells/ml versus growth time in hours as determined by the method of Example 4. The graph presents the time kill curve for the first potentiating compound from FIG. 1 at 10 μg/ml with methicillin at 20 μg/ml, and curves for controls (drug-free, methicillin only, and potentiator only). Viable cell counts for all controls were greater than 5×10^8 cells/ml at 24 hours, while the viable cell count for methicillin plus potentiator was approximately 5×10^3 cells/ml after 24 hours.
A standard time-kill method (see Eliopolous & Moellering, Ch. 13 in Antibiotics in Laboratory Medicine, 3rd ed., Lorian ed., at pp. 441-444) is used to characterize whether the potentiator-drug combination is bacteriostatic or bactericidal. As controls, normal growth of the pathogen (without drug or potentiator) and the effects of the drug alone and the potentiator alone are assessed using the same inoculum culture as is used in the combination time-kill test. Either bacteriostatic or bactericidal effect should be confirmed for the potentiators to progress to further testing.

In test [7] the test system is MRSA. Briefly: Potentiation screening assay: methicillin MIC reduction in MRSA. Type of test: cell-based, Staphylococcus aureus. The following applies: Staphylococcus aureus; MRSA, methicillin alone. The procedure: After regrowth at 35° C. to an OD600 of 0.2-0.4 (1-2 hrs.), the cells are diluted 1/1000 in MHB. […] The plate is placed in a humidified 35° C. incubator for 5-24 hours, and cell growth or inhibition is read as turbidity (OD600). Two positive and one negative controls for growth are cells grown MHB, cells grown in MHB plus 20 μg/ml methicillin alone (without test compound), and uninoculated MHB respectively.
Compounds which meet the first two criteria for follow-up are evaluated in a standard microdilution assessment of the MIC with methicillin for MRSA. (see Lorian, Antibiotics in Laboratory Medicine, 3rd ed., pp. 72-75 (1991).) In order to be carried further, the MIC of methicillin preferably is reduced in the presence of the potentiator to at most twice the MIC of a susceptible strain for methicillin.
MICs for the compounds were determined in the presence of 0, 5, and 10 μg/ml of each compound. MRSA cells were grown in the presence of 0, 5, and 10 μg/ml test compound and concentrations of methicillin obtained from serial two-fold dilutions starting at 1024 μg/ml to 0.002 μg/ml (This range can be extended or refined as appropriate.) as follows: A fresh inoculum of MRSA cells was grown at 35° C. in Mueller-Hinton Broth (MHB) overnight and then diluted 1/50 in the same medium. After regrowth at 35° C. to an OD600 of 0.2-0.4 (1-2 hrs.), the cells were diluted 1/1000 in MHB. […] The plate was placed in a humidified 35° C. incubator for 24 hours, and cell growth or inhibition was read as turbidity (OD600).

Where [8] appears, read: no vancomycin, read-out: percent intrinsic inhibition in the VPS-20 control (without vancomycin).

Like-named read-outs stand apart in the source and are kept apart here.

As to `CN[C@H](CC(C)C)C(=O)N[C@H]1C(=O)N[C@@H](CC(N)=O)C(=O)N[C@H]2C(=O)N[C@H]3C(=O)N[C@H](C(=O)N[C@H](C(=O)O)c4cc(O)cc(O)c4-c4cc3ccc4O)[C@H](O)c3ccc(c(Cl)c3)Oc3cc2cc(c3O[C@@H]2O[C@H](CO)[C@@H](O)[C@H](O)[C@H]2O[C@H]2C[C@](C)(N)[C@H](O)[C@H](C)O2)Oc2ccc(cc2Cl)[C@H]1O` [vancomycin], the “MIC of vancomycin in the presence of D-alanine” value in test [1] (200 mM D-alanine) is 16 µg/mL. Moreover, the MIC in test [1] (Enterococcus faecalis, read-out: MIC of vancomycin) stood at 512 µg/mL.

Take `CCc1cc2c(cc1C(=O)CCN1CCCC1)C(C)(C)CCC2(C)C` [EOPPTTN, 6-ethyl-7-[1-oxo-3-(1-pyrrolidino)]propyl-1,2,3,4-tetrahydro-1,1,4,4-tetramethylnaphthalene]: in test [2], the “intrinsic activity against the control cells” value (shortened to “intrinsic activity”) was “some intrinsic activity against the control cells” and the “vancomycin potentiation screen result” value is “positive, but less than N-benzyl thiosalicylamide”. Also, in test [3], the “vancomycin MIC reduction in checkerboard assay” value (“vancomycin MIC reduction” below) is “the vancomycin MIC declined significantly” and the synergy with vancomycin entry is “synergy”. Moreover, in test [4], the “vancomycin MIC reduction” value was “the vancomycin MIC declined significantly” and the synergy with vancomycin entry is on record as “synergy”.

Take `O=C(NCc1ccccc1)c1ccccc1S` [N-benzyl thiosalicylamide]: the inhibition at 10 µg/mL in test [5] (20 ug/ml vancomycin, read-out: percent growth inhibition in the VPS-20 assay (with vancomycin)) was 88%. The inhibition at 10 µg/mL in test [5] (setting [8]) was 4%. Moreover, in test [2], the “intrinsic activity” value is on record as “little intrinsic activity” and the “vancomycin potentiation screen result” value is on record as “very potent inhibitor in the assay”.

Consider `COc1cccc(OC)c1C(=O)N[C@@H]1C(=O)N2[C@@H]1SC(C)(C)[C@@H]2C(=O)O` [methicillin, reference compound], for which the “viable cell count, methicillin only (control)” value in test [6] is “greater than 5×10^8 cells/ml”. The MIC in test [7] is more than 100 µg/mL.

Turning to `Oc1ccc2c(c1)OC[C@]1(O)Cc3cc(O)c(O)cc3[C@H]21` [brazilin], the inhibition at 10 µg/mL in test [5] (setting [8]) came out at 32%. In addition, in test [2], the “intrinsic activity” value is recorded as “some intrinsic activity against the control cells” and the “vancomycin potentiation screen result” value is recorded as “positive, but less than N-benzyl thiosalicylamide”. In test [3], the “vancomycin MIC reduction” value is “significant reduction in the vancomycin MIC” and the synergy with vancomycin result is “synergy”. In test [4], the “vancomycin MIC reduction” value was “significant reduction in the vancomycin MIC” and the synergy with vancomycin entry was “synergy”.

For orientation: MIC means the least concentration at which growth counts as inhibited. What is called inhibition is the relative decrease from the control value, in per cent.

The record behind these values is patent US5883074A, “Potentiators of antibacterial agents” (priority 1995, dated 1999).
